Data published in patent US10093660B2, “Sulfoximine substituted quinazolines for pharmaceutical compositions” (EVOTEC INTERNATIONAL GMBH, priority 2013, dated 2018).

Legend:
[1] = test system: MNK2 (MNK2a or MNK2b) or MNK1; conditions: cell culture cells transfected with MNK2 (MNK2a or MNK2b) or MNK1; cited from earlier work
MNK1a = MNK1a (Homo sapiens (Human), UniProt Q9BUB5); test: MNK1 in vitro kinase assay (Assay 3), Z'-LYTE; format: biochemical; conditions: for inhibition at 1 µM: compound concentration of 1 μM, read-out: MNK1 % INH
Chain of MNK1a (Q9BUB5 other isoform, or with tags, fused parts or gaps): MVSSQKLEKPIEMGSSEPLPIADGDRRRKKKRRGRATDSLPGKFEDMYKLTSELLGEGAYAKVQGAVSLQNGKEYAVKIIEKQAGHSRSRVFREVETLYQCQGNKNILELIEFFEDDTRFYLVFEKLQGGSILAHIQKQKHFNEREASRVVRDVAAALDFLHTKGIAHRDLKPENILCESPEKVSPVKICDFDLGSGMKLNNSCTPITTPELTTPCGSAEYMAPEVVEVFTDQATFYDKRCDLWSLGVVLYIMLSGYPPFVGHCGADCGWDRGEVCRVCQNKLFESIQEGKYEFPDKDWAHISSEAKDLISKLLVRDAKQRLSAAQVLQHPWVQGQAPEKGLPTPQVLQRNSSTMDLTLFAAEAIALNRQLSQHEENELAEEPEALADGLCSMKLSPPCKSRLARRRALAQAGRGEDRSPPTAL

MNK2a = MNK2a (Homo sapiens (Human), UniProt Q9HBH9); test: MNK2a in vitro kinase assay (Assay 2), ADP-Glo; format: biochemical; conditions: assay 2; read-out: MNK2 IC50
Chain of MNK2a (Q9HBH9 whole entry): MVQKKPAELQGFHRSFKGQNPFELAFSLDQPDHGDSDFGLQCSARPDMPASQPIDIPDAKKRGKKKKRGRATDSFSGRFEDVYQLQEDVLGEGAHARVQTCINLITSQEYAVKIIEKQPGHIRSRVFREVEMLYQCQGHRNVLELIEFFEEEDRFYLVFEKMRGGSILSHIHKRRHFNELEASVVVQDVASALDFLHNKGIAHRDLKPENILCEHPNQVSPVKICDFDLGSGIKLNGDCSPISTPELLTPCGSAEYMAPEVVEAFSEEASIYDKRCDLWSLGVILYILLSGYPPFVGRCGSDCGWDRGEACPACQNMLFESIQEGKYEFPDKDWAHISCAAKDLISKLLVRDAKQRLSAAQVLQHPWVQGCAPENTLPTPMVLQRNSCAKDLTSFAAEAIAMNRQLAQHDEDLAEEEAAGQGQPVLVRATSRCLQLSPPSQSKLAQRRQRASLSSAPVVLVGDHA
Excerpt: B. MNK2a In Vitro Kinase Assay (Assay 2)

| Compound | reduction of phosphorylated eIF4E [1] | IC50 (MNK1a) [nM] | IC50 (MNK2a) [nM] | inhibition at 1 µM (MNK1a) [%] |
| --- | --- | --- | --- | --- |
| Nc1ncnc2n[nH]c(Nc3ccc(F)cc3)c12 [CGP57380] | strong reduction of phosphorylated eIF4E | – | – | – |
| CO[C@@H]1COC[C@@H]1Oc1cc(F)ccc1Nc1ncnc2cc(N=S(C)(C)=O)cc(C)c12 [Example 14.8] | – | 80 | 1 | – |
| CO[C@@H]1COC[C@H]1Oc1cc(F)ccc1Nc1ncnc2cc(N=S(C)(C)=O)cc(C)c12 (racemic) [Example 13.2] | – | – | 13 | 69 |
| COCCO[C@@H]1COC[C@@H]1Oc1cc(F)ccc1Nc1ncnc2cc(N=S(C)(C)=O)cc(C)c12 (racemic) [Example 7.1] | – | – | 45 | 62 |
| COc1cc(N=S(C)(C)=O)cc2ncnc(Nc3ccc(F)cc3O[C@H]3COC[C@H]3OC)c12 (racemic) [Example 9.1] | – | – | 2 | 96 |
| CO[C@@H]1CN(CC(F)F)C[C@H]1Oc1cc(F)ccc1Nc1ncnc2cc(N=S(C)(C)=O)cc(C)c12 [Example 5.4] | – | – | 44 | 35 |
| Cc1cc(N=S(C)(=O)C2CCOCC2)cc2ncnc(Nc3ccc(F)cc3O[C@H]3COC[C@@H]3O)c12 (some centres unmarked) [Example 2.78] | – | 107 | 11 | – |
| CO[C@@H]1COC[C@@H]1Oc1cc(F)ccc1Nc1ncnc2cc(N=S(C)(C)=O)cc(F)c12 (racemic) [Example 2.57] | – | – | 6 | 82 |
| Cc1cc(N=S2(=O)CCCC2)cc2ncnc(Nc3ccc(F)cc3O[C@@H]3CNC[C@H]3O)c12 [Example 3.5] | – | 97 | 6 | – |
| COc1cc(N=S2(=O)CCC2)cc2ncnc(Nc3ccc(F)cc3O[C@H]3COC[C@@H]3O)c12 [Example 9.10] | – | 28 | 3 | 104 |
| CO[C@@H]1CN(C(C)=O)C[C@H]1Oc1ncccc1Nc1ncnc2cc(N=S3(=O)CCCC3)cc(C)c12 [Example 6.8] | – | – | 128 | 41 |
| CO[C@@H]1CN(CCF)C[C@H]1Oc1ncccc1Nc1ncnc2cc(N=S(C)(C)=O)cc(C)c12 [Example 5.3] | – | – | 109 | 31 |
| CS(C)(=O)=Nc1cc(Cl)c2c(Nc3ccc(F)cc3O[C@@H]3COC[C@H]3O)ncnc2c1 [Example 1.26] | – | – | 3 | 99 |
| Cc1cc(N=S(C)(C)=O)cc2ncnc(Nc3ccc(F)cc3O[C@H]3CNC[C@@H]3O)c12 [Example 3.7] | – | – | 38 | 84 |
| Cc1cc(N=S2(=O)CCCC2)cc2ncnc(Nc3ccc(F)cc3O[C@H]3COC[C@H]3OCC(F)F)c12 (racemic) [Example 10.4] | – | – | 3 | 104 |
| Cc1cc(N=S(C)(C)=O)cc2ncnc(Nc3cccnc3O[C@@H]3COC[C@H]3O)c12 [Example 2.51] | – | – | 11 | 81 |
| CS(C)(=O)=Nc1cc(Br)c2c(Nc3ccc(F)cc3O[C@H]3COC[C@@H]3O)ncnc2c1 [Example 1.18] | – | – | 2 | 97 |
| CS(C)(=O)=Nc1cc(Cl)c2c(Nc3ccc(F)cc3O[C@H]3COC[C@H]3O)ncnc2c1 (racemic) [Example 1.3] | – | – | 3 | 95 |
| COc1cc(N=S(C)(=O)C(C)(C)C)cc2ncnc(Nc3ccc(F)cc3O[C@H]3COC[C@@H]3O)c12 (some centres unmarked) [Example 9.18] | – | – | 8 | 97 |
| O=S1(=Nc2cc(Cl)c3c(Nc4ccc(F)cc4O[C@@H]4COC[C@@H]4O)ncnc3c2)CCC1 (single isomer, unassigned) [Example 1.34] | – | – | 3 | 97 |
| Cc1cc(N=S(C)(C)=O)cc2ncnc(Nc3ccc(F)cc3O[C@H]3COC[C@H]3C#N)c12 [Example 1.2] | – | 383 | 19 | – |
| Cc1cc(N=S(C)(C)=O)cc2ncnc(Nc3ccc(F)cc3O[C@@H]3CNC[C@H]3O)c12 [Example 3.4] | – | – | 21 | 82 |
| CO[C@@H]1CNC[C@H]1Oc1ncccc1Nc1ncnc2cc(N=S3(=O)CCCC3)cc(C)c12 [Example 4.4] | – | – | 11 | 93 |
| Cc1cc(N=S(C)(C)=O)cc2ncnc(Nc3ccc(Cl)cc3O[C@H]3COC[C@@H]3O)c12 [Example 1.23] | – | – | 5 | 99 |
| CO[C@@H]1CN(C)C[C@H]1Oc1cc(F)ccc1Nc1ncnc2cc(N=S(C)(C)=O)cc(C)c12 [Example 11.1] | – | – | 54 | 44 |

| Compound | reduction of phosphorylated eIF4E [1] | IC50 (MNK1a) [nM] | IC50 (MNK2a) [nM] | inhibition at 1 µM (MNK1a) [%] |
| --- | --- | --- | --- | --- |
| O=S1(=Nc2cc(Cl)c3c(Nc4ccc(F)cc4O[C@@H]4COC[C@H]4O)ncnc3c2)CCCC1 [Example 1.25] | – | – | 2 | 97 |
| O=S1(=Nc2cc(F)c3c(Nc4ccc(F)cc4O[C@H]4COC[C@@H]4O)ncnc3c2)CCC1 [Example 2.92] | – | 44 | 2 | 99 |
| O=S1(=Nc2cc(F)c3c(Nc4ccc(Cl)nc4O[C@H]4COC[C@@H]4O)ncnc3c2)CCCC1 [Example 1.20] | – | – | 2 | 97 |
| CO[C@@H]1C=C[C@@H](Oc2cc(F)ccc2Nc2ncnc3cc(N=S(C)(C)=O)cc(C)c23)CO1 (racemic) [Example 13.1] | – | – | 6 | 96 |
| Cc1cc(N=S2(=O)CCCCC2)cc2ncnc(Nc3ccc(F)cc3O[C@H]3COC[C@@H]3O)c12 [Example 2.38] | – | – | 3 | 96 |
| Cc1cc(N=S2(=O)CCC(O)CC2)cc2ncnc(Nc3ccc(F)cc3O[C@@H]3COC[C@@H]3O)c12 (mixture of isomers) [Example 2.76] | – | – | 7 | 96 |
| CS(C)(=O)=Nc1cc(C(F)(F)F)c2c(Nc3ccc(F)cc3O[C@H]3COC[C@@H]3O)ncnc2c1 [Example 1.12] | – | – | 4 | 88 |
| COc1cc(N=S(C)(=O)c2cccnc2)cc2ncnc(Nc3ccc(F)cc3O[C@H]3COC[C@H]3O)c12 (mixture of isomers) [Example 9.12] | – | – | 27 | 86 |
| Cc1cc(N=S(C)(=O)C2CCOCC2)cc2ncnc(Nc3ccc(F)cc3O[C@@H]3COC[C@@H]3O)c12 (mixture of isomers) [Example 2.65] | – | – | 10 | 100 |
| Cc1cc(N=S2(=O)CCCC2)cc2ncnc(Nc3ccc(Cl)cc3O[C@@H]3COC[C@H]3O)c12 [Example 1.32] | – | – | 4 | 94 |
| Cc1c(F)c(N=S(C)(C)=O)cc2ncnc(Nc3ccc(F)cc3O[C@H]3COC[C@@H]3O)c12 [Example 1.33] | – | – | 8 | 96 |
| Cc1cc(N=S(C)(C)=O)cc2ncnc(Nc3ccc(F)cc3O[C@H]3CN(C)C[C@@H]3O)c12 [Example 2.62] | – | – | 33 | 78 |
| CCN1C[C@@H](OC)[C@H](Oc2cc(F)ccc2Nc2ncnc3cc(N=S4(=O)CCCC4)cc(C)c23)C1 [Example 4.3] | – | – | 40 | 54 |
| CC(=O)N1C[C@@H](O)[C@H](Oc2cc(F)ccc2Nc2ncnc3cc(N=S(C)(C)=O)cc(C)c23)C1 [Example 2.102] | – | – | 31 | 74 |
| CO[C@@H]1CN(S(C)(=O)=O)C[C@H]1Oc1cc(F)ccc1Nc1ncnc2cc(N=S3(=O)CCCC3)cc(C)c12 [Example 6.4] | – | – | 20 | 62 |
| Cc1cc(N=S2(=O)CCCC2)cc2ncnc(Nc3cccnc3O[C@@H]3CN(C)C[C@H]3O)c12 [Example 2.18] | – | 359 | 49 | – |
| O=S1(=Nc2cc(Cl)c3c(Nc4ccc(Cl)nc4O[C@H]4COC[C@@H]4O)ncnc3c2)CCCC1 [Example 1.17] | – | – | 2 | 103 |
| Cc1cc(N=S(C)(C)=O)cc2ncnc(Nc3cccnc3O[C@@H]3CNC[C@H]3O)c12 [Example 3.2] | – | – | 47 | 66 |
| O=S1(=Nc2cc(Cl)c3c(Nc4ccc(F)cc4O[C@@H]4COC[C@@H]4O)ncnc3c2)CCCC1 (single isomer, unassigned) [Example 14.9] | – | – | 3 | 100 |
| COc1cc(N=S2(=O)CCC(C)C2)cc2ncnc(Nc3ccc(F)cc3O[C@H]3COC[C@@H]3O)c12 (some centres unmarked) [Example 9.24] | – | – | 4 | 97 |
| CO[C@@H]1CN(C)C[C@H]1Oc1ncccc1Nc1ncnc2cc(N=S(C)(C)=O)cc(C)c12 [Example 11.4] | – | – | 59 | 56 |
| CO[C@@H]1CN(CC(F)F)C[C@H]1Oc1cc(F)ccc1Nc1ncnc2cc(N=S3(=O)CCCC3)cc(C)c12 [Example 5.1] | – | 373 | 16 | – |
| COc1cc(N=S(C)(=O)C(C)C)cc2ncnc(Nc3ccc(F)cc3O[C@H]3COC[C@@H]3O)c12 (some centres unmarked) [Example 9.9] | – | – | 7 | 94 |
| Cc1cc(N=S2(=O)CCC(C)C2)cc2ncnc(Nc3ccc(F)cc3O[C@@H]3COC[C@@H]3O)c12 (mixture of isomers) [Example 2.83] | – | – | 4 | 97 |
| CCOc1cc(N=S(C)(C)=O)cc2ncnc(Nc3ccc(F)cc3O[C@H]3COC[C@@H]3O)c12 [Example 9.6] | – | – | 8 | 94 |
